From article PMC12247511, “Evolutionary diversification of acyl-CoA synthetases underpins hydrophobic barrier formation across diverse tomato tissues and beyond” (Horticulture Research, 2025)

T1: SlLACS2 (Solanum lycopersicum, UniProt Z9EVN9B4R8)
T1 construct: full-length ORF, His-tagged (pET28b, BamHI/SalI), E. coli Rosetta 2 (DE3), Ni-NTA
T1 sequence (Z9EVN9B4R8 1-659): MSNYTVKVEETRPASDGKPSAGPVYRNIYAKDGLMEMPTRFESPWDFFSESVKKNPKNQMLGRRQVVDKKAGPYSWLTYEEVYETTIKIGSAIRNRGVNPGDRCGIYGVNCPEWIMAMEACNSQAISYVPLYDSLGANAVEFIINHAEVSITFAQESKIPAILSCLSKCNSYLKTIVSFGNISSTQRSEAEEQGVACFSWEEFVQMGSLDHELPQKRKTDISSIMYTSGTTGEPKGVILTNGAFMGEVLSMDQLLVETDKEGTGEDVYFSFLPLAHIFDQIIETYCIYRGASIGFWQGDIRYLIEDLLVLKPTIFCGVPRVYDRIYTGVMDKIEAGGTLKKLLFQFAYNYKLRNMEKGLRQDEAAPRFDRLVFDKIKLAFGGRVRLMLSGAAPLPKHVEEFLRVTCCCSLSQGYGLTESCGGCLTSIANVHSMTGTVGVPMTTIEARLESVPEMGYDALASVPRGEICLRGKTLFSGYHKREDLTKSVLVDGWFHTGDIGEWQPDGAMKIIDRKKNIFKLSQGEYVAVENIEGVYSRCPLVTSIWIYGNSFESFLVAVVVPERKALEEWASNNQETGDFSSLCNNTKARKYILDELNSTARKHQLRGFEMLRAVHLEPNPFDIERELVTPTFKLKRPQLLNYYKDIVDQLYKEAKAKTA

B1: SlLACS1 (Solanum lycopersicum) (protein)
chain: MSMNKFGLKVEEGKEGKNGEPSIGPVYRNPIAKNGFPSADPDLSTAWQLFRSAVEKYPGNRMLGWRDFKDGKWGPYNWKTYKEAYEETLQTGSALRAHGIEPGARIGIYGANCPQWIVAMEACSAHSLICVPLYDTLGSGAVDFIIEHAEIDIVFVQDKKVKELLNAECTHAKRLKLIVCFTLLQQEEKDKAVSMNIKPYSWNEFLNMGKENPSEPSPPQPLDICTIMYTSGTSGEPKGVILTHENMTASVTGVDHFMEEFEDKMTVDDVYISFLPLAHILDRMIEEFFFHRGASVGYFHGNINEIQEDMMELKPTFLAGVPRVYEKVHEGVLKALEELNPFRRHMFHVLYNFKLKWMNLGYKQKYASRLADLLAFRKVKNRLGGRIRLIVSGGAPLSTEVEEFLRVTSCGFVLQGYGLTETCGLATIGHPDEMCMLGTVGPPFVFTEVRLEEVPEMGYDPLADPSRGEICVRGRTTFTGYYKNPELTREAIKDGWFHTGDIGEMMPNGVVKVIDRKKNVIKLSQGEYVALEYLEKVYAIAPIVEDIWVYGDSFKSMLIAVVAPHEGNTKKWADKNGHKGSITELCSLQDLNQYVLLELKSAAERNKLRGFENIKGVILEPQPFEFDKELVTATMKKRRERLLKRYKLEIDDLYKRLNAAAKR
notes: full-length ORF, His-tagged (pET28b, BamHI/SalI), E. coli Rosetta 2 (DE3), Ni-NTA

What was measured:
MeLACS = tested on: T2, MeLACS; assay: coupled myokinase/pyruvate kinase/lactate dehydrogenase assay, NADH at […] nm; assay type: biochemical, Mesotaenium endlicherianum; conditions: 0.1 M Tris-HCl pH 7.5, 30 °C, 5 mM ATP, 0.5 mM CoA, 10 mM MgCl2, 2 mM DTT; fatty acid 0-1 mM from stock in 5% Triton X-100
T2 construct: full-length ORF, His-tagged (pET28b, BamHI/SalI), E. coli Rosetta 2 (DE3), Ni-NTA

SlLACS2 = target: T1, SlLACS2; assay: as above; assay type: biochemical; conditions: 0.1 M Tris-HCl pH 7.5, 30 °C, 5 mM ATP, 0.5 mM CoA, 10 mM MgCl2, 2 mM DTT; fatty acid 0-1 mM from stock in 5% Triton X-100
MvLACS = tested on: T3, MvLACS; assay: as above; assay type: biochemical, Mesostigma viride; conditions: 0.1 M Tris-HCl pH 7.5, 30 °C, 5 mM ATP, 0.5 mM CoA, 10 mM MgCl2, 2 mM DTT; fatty acid 0-1 mM from stock in 5% Triton X-100
T3 construct: full-length ORF, His-tagged (pET28b, BamHI/SalI), E. coli Rosetta 2 (DE3), Ni-NTA

purified protein [1] = substrate: CCCCCCCCCCCCCCCC(=O)O; assay: purified protein; assay type: biochemical, Solanum lycopersicum; conditions: 0.1 M Tris-HCl pH 7.5, 30 °C, 5 mM ATP, 0.5 mM CoA, 10 mM MgCl2, 2 mM DTT, fatty acid 0-1 mM from stock in 5% Triton X-100
purified protein [2] = substrate: CCCCCCCCCCCCCCCCCC(=O)O; assay: purified protein; assay type: biochemical, Solanum lycopersicum; conditions: 0.1 M Tris-HCl pH 7.5, 30 °C, 5 mM ATP, 0.5 mM CoA, 10 mM MgCl2, 2 mM DTT, fatty acid 0-1 mM from stock in 5% Triton X-100

Molecule | Km (MeLACS) [µM] | Km (SlLACS2) [µM] | Km (MvLACS) [µM] | Km (purified protein [1]) [µM] | kcat (purified protein [1]) [s⁻¹] | Km (purified protein [2]) [µM] | kcat (purified protein [2]) [s⁻¹]
CCCCCCCCCCCCCCCCCC(=O)O [sterate (C18:0)] | ~166 | ~6 | ~40 | – | – | – | –
CCCCCCCCCCCCCCCC(=O)O [palmitate (C16:0)] | ~180 | ~7 | ~32 | – | – | – | –
B1 | – | – | – | 42.4 ± 3.8 | 0.102 ± 0.01 | 9.6 ± 1.4 | 0.08 ± 0.0033
